Assay results: patent US20240317754A1 (priority 2020, published 2024)
Read-outs that look alike come from different tables or passages of the source.

Key:
[1] = tested on: SARS-CoV-2 variant B.1.351; test: microbe, parasite or virus in culture; assay type: cell-based
[2] = tested on: SARS-CoV-2 variant B.1.617.2; test: microbe, parasite or virus in culture; assay type: cell-based
[3] = tested on: SARS-CoV-2 B.1.617.2 variants; details: in vivo
SARS-CoV-2 variants = test: microbe, parasite or virus in culture; assay type: cell-based
[4] = Severe acute respiratory syndrome coronavirus 2, Vero C1008, 48 h

Structure (SMILES) | IC50 [1, 4] [nM] | IC50 [2, 4] [nM] | other results
CC(C)C(=O)OC[C@H]1O[C@@](C#N)(c2ccc3c(N)ncnn23)[C@H](O)[C@@H]1O [ATV006, ((2R,3S,4R,5R)-5-(4-aminopyrrolo[2,1-f][1,2,4]triazin-7-yl)-5-cyano-3,4-dihydroxytetrahydrofuran-2-yl)methyl isobutyrate] | 1130 | 348 | amount of viral genome (N gene) in lung tissue [3]: significantly lower than that in the control group; amount of viral subgenome (subgenomic N) in lung tissue [3]: significantly lower than that in the control group
CCCC(=O)OC[C@H]1O[C@@](C#N)(c2ccc3c(N)ncnn23)[C@H](O)[C@@H]1O [ATV009, ((2R,3S,4R,5R)-5-(4-aminopyrrolo[2,1-f][1,2,4]triazin-7-yl)-5-cyano-3,4-dihydroxytetrahydrofuran-2-yl)methyl butyrate] | 1380 | 492 | 
CCCCCCCCC(=O)OC[C@H]1O[C@@](C#N)(c2ccc3c(N)ncnn23)[C@H](O)[C@@H]1O [ATV010, ((2R,3S,4R,5R)-5-(4-aminopyrrolo[2,1-f][1,2,4]triazin-7-yl)-5-cyano-3,4-dihydroxytetrahydrofuran-2-yl)methyl nonanoate] | 1000 | 455 | 
CCC(CC)C(=O)OC[C@H]1O[C@@](C#N)(c2ccc3c(N)ncnn23)[C@H](O)[C@@H]1O [ATV011, ((2R,3S,4R,5R)-5-(4-aminopyrrolo[2,1-f][1,2,4]triazin-7-yl)-5-cyano-3,4-dihydroxytetrahydrofuran-2-yl)methyl 2-ethylbutanoate] | 2300 | 408 | 
N#C[C@@]1(c2ccc3c(N)ncnn23)O[C@H](COC(=O)c2ccccc2)[C@@H](O)[C@H]1O [ATV013, ((2R,3S,4R,5R)-5-(4-aminopyrrolo[2,1-f][1,2,4]triazin-7-yl)-5-cyano-3,4-dihydroxytetrahydrofuran-2-yl)methyl benzoate] | 2430 | 965 | 
N#C[C@@]1(c2ccc3c(N)ncnn23)O[C@H](COC(=O)C2CCCCC2)[C@@H](O)[C@H]1O [ATV014, ((2R,3S,4R,5R)-5-(4-aminopyrrolo[2,1-f][1,2,4]triazin-7-yl)-5-cyano-3,4-dihydroxytetrahydrofuran-2-yl)methyl cyclohexanecarboxylate] |  |  | IC50 [1]: 248 nM; IC50 [2]: 210 nM; IC50 (SARS-CoV-2 variants; Severe acute respiratory syndrome coronavirus 2): < 340 nM; anti-SARS-CoV-2 activity relative to GS-441524 (SARS-CoV-2 variants; summary statement, in words): twice that of GS-441524
CC(C)CC(=O)OC[C@H]1O[C@@](C#N)(c2ccc3c(N)ncnn23)[C@H](O)[C@@H]1O [ATV017, ((2R,3S,4R,5R)-5-(4-aminopyrrolo[2,1-f][1,2,4]triazin-7-yl)-5-cyano-3,4-dihydroxytetrahydrofuran-2-yl)methyl 3-methylbutanoate] | 2850 | 428 | 
CC(C)(C)C(=O)OC[C@H]1O[C@@](C#N)(c2ccc3c(N)ncnn23)[C@H](O)[C@@H]1O [ATV018, ((2R,3S,4R,5R)-5-(4-aminopyrrolo[2,1-f][1,2,4]triazin-7-yl)-5-cyano-3,4-dihydroxytetrahydrofuran-2-yl)methyl pivalate] | 785 | 229 | 
N#C[C@@]1(c2ccc3c(N)ncnn23)O[C@H](CO)[C@@H](O)[C@H]1O [GS-441524, reference compound] |  |  | IC50 [1]: 1780 nM; IC50 [2]: 1640 nM
